# Measured values as given in US20200206108A1, “Oral Care Compositions and Methods of Use” (Colgate-Palmolive Company, priority 2018, published 2020).
# Test: Zeta potential of zinc oxide in the presence of amino acids
# Format: physicochemical
# Conditions: aqueous zinc oxide suspension 12 mM, alone (pH 8) or with the named amino acid (1.7 mmol) added
# Method: The effect on zinc oxide particle charge upon exposure to amino acids was screened using zeta potential. Specific amino acids were selected based on side chain functionality: L-serine (polar, neutral), L-arginine (polar, cationic), and L-glutamic acid (polar, anionic). For zeta potential measurements, select amino acids (1.7 mmol) were added to aqueous suspensions of zinc oxide (12 mM). This concentration of zinc oxide was studied so as to minimize aggregation during zeta potential measurements. Each amino acid-zinc oxide solution was vortexed, sonicated, and then loaded into a Zetasizer DTS 1061 capillary cuvette. The cuvette was placed in the Zetasizer instrument and 12 zeta runs were performed. An average zeta potential value was calculated from the results.
row,SMILES,zeta potential (charge of zinc oxide)
1,N=C(N)NCCC[C@H](N)C(=O)O [L-arginine],+36 mV
2,N[C@@H](CCC(=O)O)C(=O)O [L-glutamic acid],−28 mV
3,N[C@@H](CO)C(=O)O [L-serine],did not alter the charge
4,"[O]=[Zn] [Zinc oxide, zinc oxide]",+16 mV
